The numbers were not newly measured in patent US20230240292A1, “METHOD FOR GROWING PLANTS” (Taminco BV, priority 2020, published 2023), which cites them from elsewhere.

Read-outs that look alike come from different tables or passages of the source.

In series [1] the test system is cauliflower seedlings. The conditions noted are these: seedlings treated with 20 mM BABA.
Series [2] relates to Tomato plants.

For `CC(N)CC(=O)O` (racemic) [BABA, beta-aminobutyric acid], in series [1], the “Reduction in growth of cauliflower seedlings” value was 14.7%. The “Root growth repression (in words)” value in series [2] (seedlings treated with as low as 0.5 mM BABA) is on record as “root growth repression was observed”. In the case of `CC/C=C\C[C@H]1C(=O)CC[C@@H]1CC(=O)O` [JA, jasmonic acid], in series [2] (seedlings treated with as low as 0.25 mM JA), the “Root growth repression (in words)” value is listed as “root growth repression was observed”.
